Tests used:
Test in all cases: relative viability (nuclei count vs DMSO), 5 days (fraction); higher = more cells survive
[1] = compound: CCN(CCO)CCCC(C)Nc1ccnc2cc(Cl)ccc12 [Hydroxychloroquine] + Cc1nc(NC(=O)N2CCC[C@H]2C(N)=O)sc1-c1ccnc(C(C)(C)C(F)(F)F)c1 [Alpelisib] (partner 2 µM)
How it was run: (§1)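 Relative viability was taken as the ratio of nuclei in treated wells to nuclei in vehicle wells. Lung cancer cell lines in 1536-well plates received compounds by pin tool one day after seeding, either one drug alone or a fixed anchor-drug dose plus five library-drug doses (not always all listed) in √10 steps. Nuclei were counted on 4× images after 5 days of treatment, and values are medians of duplicate plates.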

[2] = compound: CCN(CCO)CCCC(C)Nc1ccnc2cc(Cl)ccc12 [Hydroxychloroquine] + Cc1cc(Nc2cc(N3CCN(C)CC3)nc(Sc3ccc(NC(=O)C4CC4)cc3)n2)n[nH]1 [Tozasertib] (partner 0.1 µM)
How it was run: as §1

[3] = compound: CCN(CCO)CCCC(C)Nc1ccnc2cc(Cl)ccc12 [Hydroxychloroquine] + Cc1nc(Nc2ncc(C(=O)Nc3c(C)cccc3Cl)s2)cc(N2CCN(CCO)CC2)n1 [Dasatinib] (partner 0.075 µM)
How it was run: as §1

[4] = compound: CCN(CCO)CCCC(C)Nc1ccnc2cc(Cl)ccc12 [Hydroxychloroquine] + CCNC(=O)c1noc(-c2cc(C(C)C)c(O)cc2O)c1-c1ccc(CN2CCOCC2)cc1 [Luminespib] (partner 0.01 µM)
How it was run: as §1

| Cell Line | relative viability ([1]; first compound 0.5 µM) | relative viability ([1]; first compound 1.581 µM) | relative viability ([1]; first compound 5 µM) | relative viability ([1]; first compound 15.81 µM) | relative viability ([1]; first compound 50 µM) | relative viability ([2]; first compound 0.5 µM) | relative viability ([2]; first compound 1.581 µM) | relative viability ([2]; first compound 5 µM) | relative viability ([2]; first compound 15.81 µM) | relative viability ([2]; first compound 50 µM) | relative viability ([3]; first compound 0.5 µM) | relative viability ([3]; first compound 1.581 µM) | relative viability ([3]; first compound 5 µM) | relative viability ([3]; first compound 15.81 µM) | relative viability ([3]; first compound 50 µM) | relative viability ([4]; first compound 0.5 µM) | relative viability ([4]; first compound 1.581 µM) | relative viability ([4]; first compound 5 µM) | relative viability ([4]; first compound 15.81 µM) | relative viability ([4]; first compound 50 µM) |
| --- | --- | --- | --- | --- | --- | --- | --- | --- | --- | --- | --- | --- | --- | --- | --- | --- | --- | --- | --- | --- |
| HCC-827 | 1.05 | 1.03 | 0.939 | 1.03 | 0.979 | 0.442 | 0.442 | 0.513 | 0.467 | 0.456 | 0.306 | 0.378 | 0.312 | 0.388 | 0.314 | 0.781 | 0.629 | 0.686 | 0.522 | 0.85 |
| HOP-62 | 0.997 | 1.18 | 1.15 | 1 | 1.04 | 0.365 | 0.316 | 0.38 | 0.43 | 0.413 | 0.57 | 0.601 | 0.717 | 0.636 | 0.58 | 1 | 0.987 | 1.01 | 1.09 | 1 |
| IA-LM | 0.878 | 0.377 | 0.811 | 0.607 | 0.887 |  |  |  |  |  |  |  |  |  |  |  |  |  |  |  |
| LC-2-ad | 0.873 | 0.851 | 0.904 | 0.873 | 0.93 | 0.447 | 0.478 | 0.415 | 0.463 | 0.455 | 0.56 | 0.684 | 0.603 | 0.639 | 0.595 | 1.19 | 1.02 | 0.906 | 1.01 | 0.969 |
| LCLC-97TM1 | 0.286 | 0.223 | 0.262 | 0.244 | 0.286 | 0.282 | 0.254 | 0.229 | 0.509 | 0.26 | 0.866 | 0.896 | 0.903 | 0.841 | 0.808 | 0.876 | 0.833 | 0.787 | 0.768 | 0.867 |
| LCLC-103H | 1.02 | 0.907 | 0.965 | 0.888 | 0.953 | 0.433 | 0.404 | 0.541 | 0.507 | 0.56 | 0.367 | 0.405 | 0.523 | 0.547 | 0.543 | 0.983 | 0.921 | 1.05 | 1.11 | 1.1 |
| LK-2 | 1.02 |  | 1.26 | 1.27 | 1.24 | 0.176 | 0.167 |  | 0.176 | 0.154 | 0.258 | 0.261 |  | 0.294 | 0.357 | 0.192 | 0.171 |  | 0.193 | 0.224 |
| LOU-NH91 | 0.697 | 0.617 | 0.741 | 0.745 | 0.758 | 0.651 | 0.6 | 0.687 | 0.692 | 0.723 | 0.559 | 0.453 | 0.588 | 0.581 | 0.593 | 0.369 | 0.313 | 0.307 | 0.345 | 0.371 |
| LU99A | 0.481 | 0.364 | 0.534 | 0.498 | 0.619 | 0.243 | 0.229 | 0.281 | 0.256 | 0.284 | 0.47 | 0.502 | 0.714 | 0.613 | 0.612 | 0.279 | 0.248 | 0.265 | 0.226 | 0.268 |

From the supplement of paper PMC10307832
